Test results reported in publication PMC6422423, “Constitutively active BRS3 is a genuinely orphan GPCR in placental mammals” (PLoS Biology, 2019).

Columns and labels:
NMBR = biological target: T1, NMBR (Homo sapiens, UniProt P28336); experiment: Radioligand binding (competition); conditions: [125I]-Tyr-NMB
T1 construct: HA; expressed in transfected cells; host or cells: HEK293
Procedure: HEK293 cells were seeded in a 10-cm tissue culture dish at a density of 10^6 cells per dish and grown overnight at 37°C in growth medium. The following morning, 5 μg of different species’ BRS3 plasmids were transfected. After 6 h, the medium was replaced with growth medium. Cells were maintained at 37°C in a 5% CO2 atmosphere and used 48 h later for binding assays. The positive control group included transfected GRPR and NMBR; the test group consisted of transfected BRS3 from different species. […] The cell concentration was adjusted to between 0.05 and 4 × 10^6 cells/ml for each receptor such that less than 20% of the total added radioactive ligand was bound during the incubation, and the results were compared to cells transfected with GRPR or NMBR adjusted in concentration to bind a similar amount of ligand. After the incubation, 100 μl aliquots were added to 1.5-ml microfuge tubes, which contained 100 μl of binding buffer to determine the total radioactivity. […] The amount of radioactivity bound to the cells was measured in a Cobra II Gamma counter (Packard Instruments). Binding was expressed as the percentage of total radioactivity that was associated with the cell pellet. […] Each point was measured in duplicate, and each experiment was replicated at least four times. […] All the experiment data were calculated using 1 pM ligand-treated as 100% control.

chicken BRS3 (cBRS3) = experiment: Intracellular calcium assay (WT and mutants); format: cell-based, Gallus gallus; conditions: 10 nM peptide, HEK293, Fluo8, cBRS3
Procedure: Intracellular calcium was measured using the non-wash calcium assay Fluo8 kit (ab112129, Abcam) according to the manufacturer’s instructions. Briefly, HEK293 cells were seeded in 24-well plates and were transfected with GRPR, NMBR, BRS3, or the empty vector plasmid pcDNA3.1-V5-His (300 ng) and incubated overnight at 37°C with 5% CO2. The next day, the cells were replated into a 96-well assay plate (black plate and clear bottom). After 12 h, growth media were aspirated, and calcium dye was added. […] The basal fluorescence intensity was recorded 15 times at 1 Hz for […]. The results were normalized to the average basal fluorescence intensity in ratio, and the peak response was used for the result calculation. Calcium fold was calculated using no stimulation data as standard value.

T1 sequence (P28336 whole entry, species assumed): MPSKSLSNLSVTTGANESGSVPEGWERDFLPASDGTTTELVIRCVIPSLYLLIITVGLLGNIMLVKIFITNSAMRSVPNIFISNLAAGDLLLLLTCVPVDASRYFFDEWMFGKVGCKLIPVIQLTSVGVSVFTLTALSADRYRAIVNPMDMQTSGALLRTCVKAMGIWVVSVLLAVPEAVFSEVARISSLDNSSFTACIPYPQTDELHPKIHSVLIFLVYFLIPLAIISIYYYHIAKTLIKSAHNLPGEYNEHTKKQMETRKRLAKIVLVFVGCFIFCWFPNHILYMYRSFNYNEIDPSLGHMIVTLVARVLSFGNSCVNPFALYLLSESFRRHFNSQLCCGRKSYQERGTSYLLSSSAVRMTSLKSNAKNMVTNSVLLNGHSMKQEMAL

Question: For “GSHWAVGHLM-NH2 [GRP, gastrin-releasing peptide]”, which “Inhibition of NMBR–NMB binding (in words)” value (NMBR) is on record?
Answer: cannot inhibit

Question: And the Calcium fold (chicken BRS3 (cBRS3); replicate 1)?
Answer: 5.1641 fold

Question: And the Calcium fold (chicken BRS3 (cBRS3); replicate 2)?
Answer: 5.5593 fold

Question: What about the Calcium fold (chicken BRS3 (cBRS3); replicate 3) of the same substance?
Answer: 5.8165 fold
